Test results: patent US11230717B2, “Plants having increased tolerance to herbicides” (BASF SE, priority 2013, dated 2022)

Legend:
[1] = target: T1, Hordeum HPPD variant L320N (Hordeum vulgare, UniProt O48604, A164G/L320N/R146V/R147D/R148G); experiment: HPPD activity assay, in vitro characterization of HPPD mutants; type: biochemical; settings: normalized to wild-type
T1 construct: His (N); made in house; host or cells: E. coli BL21 (DE3)
Procedure: (§1) HPPD produces homogentisic acid and CO2 from 4-hydroxyphenylpyruvate (4-HPP) and O2. The activity assay for HPPD is based on the analysis of homogentisic acid by reversed phase HPLC.
(§2) The assay mixture can contain 150 mM potassium phosphate buffer pH 7.0, 50 mM L-ascorbic acid, 100 μM Catalase (Sigma-Aldrich), 1 μM FeSO4 and 0.2 units of purified HPPD enzyme in a total volume of 505 μl. 1 unit is defined as the amount of enzyme that is required to produce 1 nmol of HGA per minute at 20° C.
(§3) After a preincubation of 30 min the reaction is started by adding 4-HPP to a final concentration of 0.05 mM. The reaction is allowed to proceed for 45 min at room temperature. The reaction is stopped by the addition of 50 μl of 4.5 M phosphoric acid. The sample is filtered using a […] pore size PVDF filtration device.
(§4) 5 μl of the cleared sample is analyzed on an UPLC HSS T3 column (particle size 1.8 μm, dimensions 2,1×50 mm; Waters) by isocratic elution using 90% 20 mM NaH2PO4 pH 2.2, 10% methanol (v/v).
(§5) HGA is detected electrochemically at 750 mV (mode: DC; polarity: positive) and quantified by integrating peak areas (Empower software; Waters).
(§6) Inhibitors are dissolved in DMSO (dimethylsulfoxide) to a concentration of 0.5 mM. From this stock solution serial five-fold dilutions are prepared in DMSO, which are used in the assay. The respective inhibitor solution accounts for 1% of the assay volume. […] Activities are normalized by setting the uninhibited enzyme activity to 100%. IC50 values are calculated using non-linear regression.
(§7) Purified, mutant HPPD enzymes are obtained by the methods described above. Dose response and kinetic measurements are carried out using the described HPPD activity assay. Apparent michaelis constants (Km) and maximal reaction velocities (Vmax) are calculated by non-linear regression with the software GraphPad Prism 5 (GraphPad Software, La Jolla, USA) using a substrate inhibition model. […] Weighted means (by standard error) of Km and IC50 values are calculated from at least three independent experiments.
(§8) Field performance of the optimized HPPD enzyme, which is used as a herbicide tolerance trait may depend not only on its lack of sensitivity towards HPPD inhibiting herbicides but also on its activity. To assess the potential performance of a herbicide tolerance trait a tolerance index (TI) is calculated using the following formula: […]

[2] = target: T2, Hordeum HPPD variant L353M, P321R, L320Q (Hordeum vulgare, UniProt O48604, L320Q/L353M/P321R); experiment: as above; type: biochemical; settings: normalized to wild-type
T2 construct: His (N); made in house; host or cells: E. coli BL21 (DE3)
Procedure: as §1, §2, §3, §4, §5, §6, §7, §8

[3] = system: transgenic Soy plants; experiment: Greenhouse testing of transgenic Soy plants (T2), herbicide spray test; type: in vivo, Glycine max
Procedure: Transgenic plants expressing heterologous HPPD or HST enzymes are tested for tolerance against HPPD-inhibiting herbicides in greenhouse experiments.
For post emergence treatment, the test plants are first grown to a height of 3 to 15 cm, depending on the plant habit, and only then treated with the herbicides. For this purpose, the test plants are either sown directly and grown in the same containers, or they are first grown separately and transplanted into the test containers a few days prior to treatment. For testing of T0 plants, cuttings can be used. In the case of soybean plants, an optimal shoot for cutting is about 7.5 to 10 cm tall, with at least two nodes present. Each cutting is taken from the original transformant (mother plant) and dipped into rooting hormone powder (indole-3-butyric acid, IBA). The cutting is then placed in oasis wedges inside a bio-dome. Wild type cuttings are also taken simultaneously to serve as controls. The cuttings are kept in the bio-dome for 5-7 days and then transplanted to pots and then acclimated in the growth chamber for two more days. Subsequently, the cuttings are transferred to the greenhouse, acclimated for approximately 4 days, and then subjected to spray tests as indicated.
Depending on the species, the plants are kept at 10-25° C. or 20-35° C. The test period ex-tends over 3 weeks. During this time, the plants are tended and their response to the individual treatments is evaluated. Herbicide injury evaluations are taken at 2 and 3 weeks after treatment. Plant injury is rated on a scale of 0 to 9, 0 being no injury and 9 being complete death.
As depicted in Table 20, control plants were severely injured by all doses of herbicide applied, with 79% of leaf material being damaged at the highest application rate. […] Application of 31,25 g/ha active ingredient resulted only in 10-13% of leaf damage in two independent transgenic plant lines. Thus, in direct comparison with wild-type plants (injury value is 49%), a 4-fold increased tolerance could be observed after spraying with 31,25 g/ha. […]

[4] = target: T3, Arabidopsis HPPD variant F381I (Arabidopsis thaliana, UniProt P93836, F381I); experiment: HPPD activity assay, in vitro characterization of HPPD mutants; type: biochemical; settings: normalized to wildtype
T3 construct: His6 (N); made in house; host or cells: E. coli BL21 (DE3)
Procedure: as §1, §2, §3, §4, §5, §6, §7, §8

T2 sequence (O48604 whole entry R146V/R147D/R148G/A164G/L320Q/P321R/L353M): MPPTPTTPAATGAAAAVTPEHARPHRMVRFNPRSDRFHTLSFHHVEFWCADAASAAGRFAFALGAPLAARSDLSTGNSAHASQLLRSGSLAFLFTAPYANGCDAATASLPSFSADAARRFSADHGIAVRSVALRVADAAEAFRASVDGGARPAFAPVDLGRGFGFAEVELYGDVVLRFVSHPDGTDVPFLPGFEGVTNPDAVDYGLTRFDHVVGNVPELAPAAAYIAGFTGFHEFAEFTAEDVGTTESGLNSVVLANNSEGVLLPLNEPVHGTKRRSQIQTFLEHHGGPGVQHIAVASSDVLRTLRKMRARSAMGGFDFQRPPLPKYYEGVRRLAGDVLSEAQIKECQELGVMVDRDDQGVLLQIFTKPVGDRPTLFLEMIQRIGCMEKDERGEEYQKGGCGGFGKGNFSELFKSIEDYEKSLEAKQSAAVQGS
T3 sequence (P93836 whole entry F381I): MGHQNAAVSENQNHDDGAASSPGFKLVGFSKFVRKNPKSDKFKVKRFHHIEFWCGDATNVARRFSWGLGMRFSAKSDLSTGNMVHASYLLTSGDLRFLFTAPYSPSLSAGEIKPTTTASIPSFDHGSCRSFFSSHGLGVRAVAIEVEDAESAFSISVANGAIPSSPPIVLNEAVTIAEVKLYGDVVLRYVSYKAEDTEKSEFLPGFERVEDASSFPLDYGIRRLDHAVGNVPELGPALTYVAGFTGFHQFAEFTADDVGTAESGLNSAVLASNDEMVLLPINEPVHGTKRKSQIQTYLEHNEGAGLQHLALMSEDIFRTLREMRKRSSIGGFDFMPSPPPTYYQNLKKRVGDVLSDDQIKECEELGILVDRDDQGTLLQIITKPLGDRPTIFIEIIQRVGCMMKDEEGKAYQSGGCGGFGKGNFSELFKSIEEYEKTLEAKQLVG
T1 sequence (O48604 whole entry R146V/R147D/R148G/A164G/L320N): as the sequence (O48604 whole entry R146V/R147D/R148G/A164G/L320Q/P321R/L353M) above, with Q320N, R321P, M353L counted along it

| SMILES | Normalized tolerance index (TI) [1] | Normalized tolerance index (TI) [2] | increased tolerance vs wild-type plants ([3]; Soy Arabidopsis HPPD (SEQ ID: 53), 31,25 g/ha) [fold] | leaf damage ([3]; Soy Arabidopsis HPPD, two independent transgenic plant lines, 31,25 g/ha) | tolerance compared to nontransgenic control plants ([3]; Soy expressing Glycine max HPPD) | Normalized tolerance index (TI) [4] |
| --- | --- | --- | --- | --- | --- | --- |
| Cn1nnnc1NC(=O)c1c(F)cc(Cl)c(S(C)(=O)=O)c1Cl [Inhibitor 1, 2,4-dichloro-6-fluoro-3-methylsulfonyl-N-(1-methyltetrazol-5-yl)benzamide] | 5.2 | 2.5 | – | – | – | – |
| CSc1c(Cl)cc(F)c(C(=O)Nc2ncnn2C)c1Cl [Inhibitor 3, 2,4-dichloro-6-fluoro-3-methylsulfanyl-N-(2-methyl-1,2,4-triazol-3-yl)benzamide] | – | – | 4 | 10-13% | more tolerant | 0.1 |
